Results: paper PMC11986105, “Antibacterial macrocyclic peptides reveal a distinct mode of BamA inhibition” (Nature Communications, 2025)
≈ marks a conversion by molar mass, not a printed value. Where two headings read alike, the source gives them in different places. Bridge positions count the residues as written; N and C are the ends. Square brackets hold non-standard residues; d marks the D form. Peptide text beside a SMILES is read from it. Gly(NCH2CH2Ph) = O=C(O)CNCCc1ccccc1; NMeF = CN[C@@H](Cc1ccccc1)C(=O)O; Tic = O=C(O)[C@@H]1Cc2ccccc2CN1

Legend:
[1] = molecular target: T1, E. coli BamA β-barrel (Escherichia coli, UniProt P0A940); assay: SPR binding to E. coli BamA β-barrel; conditions: for KD: SPR, N-terminally biotinylated E. coli BamA β-barrel, single cycle kinetics, average of 2, 3, or 4 replicates ± SD; for kon: pH 7.5, read-out: ka
T1 construct: residues 421–810 from strain MG1655; made in house
From the text: For SPR, E. coli K-12 BamA (EcBamA; residues 421–810 from strain MG1655), A. baumannii BamA (AbBamA; residues 425–841 from strain ATCC19606) and P. aeruginosa BamA (PaBamA; residues 420–797 from strain PAO1) were synthesized and cloned into pET23b (Millipore Sigma) with a N-terminal Avitag for biotin conjugation. For mRNA display screening, an additional E. coli BamA (421–810) construct (EcBamA′) was designed with an N-terminal His tag, a TEV protease cleavage site, and three point mutations (C690S/C700S/S752C) to allow for site specific biotinylation of residue 752.
For peptide binding assays a Cytiva Series S CAP sensor chip was loaded onto a Biacore T200, and the chip surface was prepared according to the manufacturer’s recommendations. The running buffer was 10 mM HEPES pH 7.5, 150 mM NaCl, 0.1% LDAO. Briefly, the CAP reagent (Cytiva) was diluted 1:10 in HBS-EP buffer (0.01 M HEPES pH 7.4, 0.15 M NaCl, 3 mM EDTA, 0.005% v/v Surfactant P20) and flowed across the chip surface for 300 sec. Biotinylated EcBamA, PaBamA, or AbBamA was then immobilized on the surface by flowing the protein over the chip for 200 sec. Cyclic peptides were injected at concentrations of 12.3, 37, 111, 333 and 1000 nM in single-cycle kinetic mode for 120 sec followed by a 120 sec dissociation period, and after the highest concentration of peptide was injected the dissociation period was 1200 sec. The chip surface was regenerated after each peptide was tested by flowing regeneration solution (8 M guanidine HCl, 1 M NaOH) over the chip surface.

[2] = tested on: E. coli BamA101 (JCM972, MC4100 bamA101); format: cell-based, Escherichia coli; conditions: in solution, CAMHB broth microdilution
Description: (§1) The MICs of the cyclic peptides obtained in the mRNA display screens against E. coli strains JCM158 and JCM972 were measured using broth microdilution in cation-adjusted Mueller−Hinton broth (CAMHB), as recommended by the Clinical and Laboratory Standards Institute. In addition, zone of inhibition (ZOI) assays using JCM158, JCM972, AM710, AM711, MB5746, Acinetobacter baumannii ATCC17987, Pseudomonas aeruginosa MB5919, and Staphylococcus aureus Col were performed to provide a visual display of the relative susceptibility of the strains to the peptides. Briefly, ZOI studies were performed by first growing the bacteria in CAMHB to late exponential phase at 37 °C. Molten CAMHA (CAMHB containing 1.2% agar) was equilibrated to 48 °C in a water bath for 60 min. Cells were then mixed with 30 mL of the molten CAMHA at a 1:1000 dilution and immediately poured onto an Omni-tray plate (NUNC cat# 242811). The agar plate was kept at room temperature for 20 min to solidify and further dried in a biosafety cabinet for ~20 min. Each peptide was dissolved in DMSO, and 2–5 µL aliquots were dispensed onto the top of the plate in a two-fold dilution series in which the peptides were diluted in DMSO. After the liquid was absorbed, plates were incubated at 37 °C for 18 h, and images were acquired using a Hi-Res imaging system.

[3] = tested on: E. coli WT (JCM158, MC4100 ara^r); format: cell-based, Escherichia coli
Description: as §1

[4] = tested on: EspP(G1123R) assembly in AD202 (bamA+); assay: Pulse-chase assembly of slow mutant EspP(G1123R) in AD202; format: cell-based, Escherichia coli; conditions: for effect on EspP(G1123R) assembly when added after the mutant binds to BAM: added 2 min after the start of the chase, peptides 2x MIC, EDTA 2.5 mM, sorbitol 0.8 M
Description: AD202 (MC4100 ompT::kan) transformed with pJH224 [Ptrc-espP(G1123R)] were grown to log phase in M9, the expression of espP(G1123R) was induced by adding 10 µM IPTG, and cells were subjected to pulse-chase labeling. […] Immunoprecipitations were performed using an anti-EspP C-terminal peptide antiserum and proteins were resolved by SDS-PAGE. Representative experiments are shown (left), and the completion of EspP(G1123R) assembly was quantitated by calculating the percent of radiolabeled proEspP(G1123R) that underwent autocatalytic cleavage in untreated cells (control) or cells treated with the indicated peptide 2 min after the start of the chase (red arrows) in three biologically independent experiments (right). […] The data are presented as mean values and error bars represent the SEM. In C 2.5 mM EDTA was added 2 min post-chase, and in E cells were harvested and resuspended in M9 (control) or M9 containing 0.8 M sorbitol 2 min post-chase. A representative experiment is shown (left), and the assembly of EspP(G1123R) in cells treated with EDTA or sorbitol or untreated (control) in three biologically independent experiments was quantitated as in B (right).
To analyze the assembly of OMPs in living cells, overnight cultures of HDB164 (MC4100 ara^R bamA101 ompT::spc) transformed with pJH110 (Ptrc-espPΔ5)[65] or AD202 transformed with pRSL5 (Ptrc-espP)[77] or pJH224 [Ptrc-espP (G1123R)][67] were grown in M9 supplemented with 100 μg/mL ampicillin (M9/ampicillin) at 37 °C. The overnight cultures were washed in M9 and added to 50 ml fresh M9/ampicillin at OD550 = 0.02. When the cultures reached OD550 = 0.2, IPTG (10 μM) was added and the cells were incubated for another 30 min at 37 °C before being subjected to pulse-chase labeling as previously described[66]. At each timepoint 1 ml aliquots were removed and proteins were precipitated by adding 10% (v/v) TCA. […] As a control, an equal amount of DMSO was added. In some experiments, 2.5 mM EDTA, pH 8 was added instead of a cyclic peptide. […]

[5] = tested on: AD202 transformed with pJH224; conditions: 2.5 mM EDTA or peptide at 2x MIC, 5 or 15 min
Description: Overnight cultures of AD202 transformed with pJH224 were grown at 37 °C in M9/ampicillin, washed, and added to 55 ml of fresh medium at OD550 = 0.02. When cultures reached OD550 = 0.2, 10 μM IPTG was added and cultures were incubated at 37 °C for an additional 15 min. Cultures were then divided into five 10 ml aliquots and placed into 15 ml tubes. Cells were pelleted in 15 ml tubes (3000 x g, 15 min, room temperature), resuspended in 1 ml pre-warmed M9 and transferred to 50 ml tubes. […] Cells were then placed into 1.7 ml tubes on ice for 5 min and centrifuged (2900 x g, 6 min, 4 °C). The cell pellet was discarded and the supernatant was centrifuged in a TLA.2 rotor in a Beckman Optima MAX-TL ultracentrifuge (100,000 x g, 30 min, 4 °C). Once again the pellet was discarded, and 5 mL 4x LDS sample buffer was then added to 20 mL of each supernatant (which represents the culture medium of ~0.05 OD equivalents), and molecules located in the culture medium were resolved by SDS-PAGE on 12% Novex Tris-Bis minigels (ThermoFisher) using MES running buffer. LPS was visualized using the Molecular Probes Pro-Q Emerald 300 Lipopolysaccharide Gel Stain Kit (ThermoFisher) following the manufacturer’s instructions.

[6] = tested on: EspP(G1123R) assembly in AD202 (bamA+); set-up: method as in PMID 36165532; conditions: cited from earlier work
[7] = tested on: wild-type EspP assembly in AD202; assay: Pulse-chase assembly of wild-type EspP in AD202; format: cell-based, Escherichia coli; conditions: 0.8 M sorbitol 2 min after start of chase, 28 °C
Description: To analyze the assembly of OMPs in living cells, overnight cultures of HDB164 (MC4100 ara^R bamA101 ompT::spc) transformed with pJH110 (Ptrc-espPΔ5)[65] or AD202 transformed with pRSL5 (Ptrc-espP)[77] or pJH224 [Ptrc-espP (G1123R)][67] were grown in M9 supplemented with 100 μg/mL ampicillin (M9/ampicillin) at 37 °C. The overnight cultures were washed in M9 and added to 50 ml fresh M9/ampicillin at OD550 = 0.02. When the cultures reached OD550 = 0.2, IPTG (10 μM) was added and the cells were incubated for another 30 min at 37 °C before being subjected to pulse-chase labeling as previously described[66]. At each timepoint 1 ml aliquots were removed and proteins were precipitated by adding 10% (v/v) TCA. […] As a control, an equal amount of DMSO was added. […] Radioactive proteins were visualized on a Fuji FLA 9000 imager using phoshophorimaging settings, and data was quantitated using Fuji MultiGauge v.
For experiments that involved EspP or EspP derivatives, the accumulated β-barrel was defined as the normalized β-barrel signal, where the normalization factor was (preproEspPsignal + proEspPsignal + β-domainsignal) at the 0 min timepoint for each condition and each experiment. For some experiments that involved EspP or EspP derivatives, the percent cleavage at each timepoint was also measured and was defined as [β-barrel signal /(proEspPsignal + β-barrelsignal)] x 100. […]

SMILES | KD [1] | MIC E. coli BamA101 [2] | kon [1] | MIC E. coli WT ([3]; JCM158, 18 h) | effect on EspP(G1123R) assembly when added after the mutant binds to BAM [4] | further results
CC(C)C[C@@H]1NC(=O)[C@H](Cc2ccccc2)NC(=O)CSC[C@@H](C(=O)NCC(N)=O)NC(=O)[C@H](CC(=O)O)NC(=O)[C@H](Cc2ccccc2)N(C)C(=O)CNC(=O)[C@H](CCCNC(=N)N)NC(=O)[C@H](C(C)C)NC(=O)[C@@H]2CCCN2C(=O)[C@H](CCCNC(=N)N)NC(=O)[C@H](Cc2c[nH]cn2)NC(=O)[C@H](Cc2ccc(O)cc2)NC(=O)[C@H](Cc2ccccc2)N(C)C(=O)[C@H](Cc2c[nH]c3ccccc23)NC1=O [CP1, F.L.W.MePhe.Y.H.R.P.V.R.G.MePhe.D.C.G] ({CH2CO}-FLW[NMeF]YHRPVRG[NMeF]DCG-NH2; thioether N-14) | low-nanomolar range | 12.5 µM (≈ 24.6 µg/mL) | – | – | – | MIC E. coli WT ([3]; in solution, CAMHB broth microdilution): > 50 µM
CC(C)[C@@H]1NC(=O)[C@H](CO)NC(=O)[C@H](CCCNC(=N)N)NC(=O)[C@H](CO)NC(=O)[C@@H]2CCCN2C(=O)[C@H](Cc2c[nH]c3ccccc23)NC(=O)[C@@H]2Cc3ccccc3CN2C(=O)[C@H](Cc2c[nH]c3ccccc23)NC(=O)[C@H](CCCNC(=N)N)NC(=O)CNC(=O)[C@H](CO)NC(=O)[C@H](Cc2ccccc2)NC(=O)CSC[C@@H](C(=O)NCC(N)=O)NC(=O)CNC1=O [CP2, F.S.G.R.W.Tic.W.P.S.R.S.V.G.C.G] ({CH2CO}-FSGRW[Tic]WPSRSVGCG-NH2; thioether N-14) | low-nanomolar range | 6.3 µM (≈ 11.2 µg/mL) | 430000 ± 2.9e+10 M⁻¹ s⁻¹ | > 50 µM | – | –
CC(C)C[C@@H]1NC(=O)CN(CCc2ccccc2)C(=O)[C@H](Cc2ccc(O)cc2)NC(=O)[C@H](CCCNC(=N)N)NC(=O)[C@H](CCCNC(=N)N)NC(=O)[C@H](Cc2ccccc2)NC(=O)CSC[C@@H](C(=O)NCC(N)=O)NC(=O)[C@H](Cc2ccc(O)cc2)NC(=O)[C@@H]2Cc3ccccc3CN2C(=O)[C@H](C(C)C)NC(=O)[C@H](Cc2c[nH]c3ccccc23)NC(=O)[C@H](Cc2ccc(O)cc2)NC(=O)[C@H](CC(N)=O)NC(=O)[C@H](CC(=O)O)NC1=O [CP3, F.R.R.Y.PeGly.L.D.N.Y.W.V.Tic.Y.C.G] ({CH2CO}-FRRY[Gly(NCH2CH2Ph)]LDNYWV[Tic]YCG-NH2; thioether N-14) | low-nanomolar range | 6.3 µM (≈ 13.3 µg/mL) | 160000 ± 3e+09 M⁻¹ s⁻¹ | > 50 µM | – | –
O=C(O)CN(CCN(CC(=O)O)CC(=O)O)CC(=O)O [EDTA] | – | – | – | – | accelerate | effect on EspP(G1123R) assembly, EDTA added prior to synthesis ([4]; 2.5 mM EDTA added 1 min or 5 min before the start of the chase): accelerates; release of LPS into the culture medium [5]: releasing LPS into the culture medium
NC(N)=NC(=O)CC(Nc1nc(N=C(N)N)nc(NC2CCC(NC(=O)Cn3nnc(-c4ccc(F)cc4)n3)CC2)n1)C1CC1 (centres unmarked) [MRL-494] | – | – | – | – | – | effect on EspP(G1123R) assembly when added after the protein binds to BAM [6]: inhibit the assembly
OC[C@@H](O)[C@@H](O)[C@H](O)[C@@H](O)CO [sorbitol] | – | – | – | – | accelerate | effect on assembly of wild-type EspP, sorbitol [7]: slightly delay
